Test results published in paper PMC11669939, “Impairing protein–protein interactions in an essential tRNA modification complex: An innovative antimicrobial strategy against Pseudomonas aeruginosa” (Journal of Peptide Science, 2024).

Assays:
[1] = target: YeaZ protein from P. aeruginosa PAO1, recombinant His-tagged (P. aeruginosa PAO1); experiment: SEC; analytical, Superdex75 Increase 10/300 GL, Hepes 50 mM pH 7.4, NaCl 500 mM, 10% glycerol; YeaZ 0.5 mg/ml (2% DMSO as control); peptide at 200 μM
[2] = cited from earlier work
Text: P. aeruginosa (PAE) is a Gram‐negative bacterium that has been ranked by WHO as one out of three pathogens with the highest global priority for the development of novel effective antibacterials.[17] PAE is a major cause of both acute and chronic lung infections, which develop in up to 60%–70% of cystic fibrosis (CF) patients, often leading to a more rapid decline of lung function that turns into greater morbidity and mortality.[18], [19], [20] The misuse of classical antibiotics, whose mechanism of action is usually based on the interaction with a well‐defined ligand binding site, led to an ev ... || These observations supported our hypothesis that PMP1 should be able to bind to YeaZ and consequently reduce its ability to form protein complexes, thus impairing its function. […] Indeed, the PMP2 peptide derives from the PMP1 sequence RIAIGVVQGLAFAL (Arg73‐Leu86) and thus contains the four hot ...

[3] = tested on: Escherichia coli K‐12 MG1655; experiment: Bacterial growth inhibition assay, E. coli MG1655; assay type: cell-based; settings: 3, 10, 30 μM; Mueller Hinton Broth, 37°C, OD595 every 15 min; mean of three independent experiments
Procedure: (§1) Growth inhibition experiments were performed with P. aeruginosa PAO1 strain[37] and Escherichia coli K‐12 MG1655.[38] Cells were grown overnight in 10 ml of LB medium at 37°C with shaking. Overnight cultures were washed twice with phosphate‐buffered saline (PBS) and inoculated to an optical density at 595 nm (OD595) of 0.05 in 10 ml of Mueller Hinton Broth (Sigma‐Aldrich). Aliquots (200 μl) of inoculated medium were distributed in triplicate (technical replicates) in a 96‐Well Cellstar® suspension culture plate (Greiner Bio‐One) and incubated in a Sunrise microplate reader (Tecan Group) at 37°C with constant orbital shaking and real‐time OD595 measurements every 15 min. Three final peptide concentrations were tested: 3, 10, and 30 μM, respectively. Controls were made by adding sterilized water, in the same amount of the added peptide volumes. Three independent replicates were performed. Data were reported by plotting, at each time point, the mean OD595 values of the three replicates with error bars indicating Standard Error of Mean (SEM).

[4] = tested on: YeaZ; experiment: Intrinsic tryptophan fluorescence (ITF) binding assay; set-up: species or system Pseudomonas aeruginosa
Procedure: (§2) Briefly, the YeaZ protein was produced in E. coli M15[pREP4] strain using a pQE30‐PaYeaZ plasmid. Cells were grown in LB medium at 37°C till the OD600 reached 0.6, then the protein expression was induced by isopropyl‐β‐D‐thiogalactoside (IPTG) at a final concentration of 0.1 mM for 5 h at 30°C. After cell collection, the pellet was resuspended in a lysis buffer containing 50 mM phosphate buffer, 150 mM NaCl, and 10 mM imidazole, pH 7.4. Cells were subsequently disrupted by a French press disruptor (20 bar pressure), and one tablet of protease inhibitor (Roche), 10 mg/ml DNase I, and 5 mg/ml Ribonuclease A were added to the solution. After centrifugation at 18,000 rpm for 45 min, the supernatant was collected, filtered, and loaded onto a Ni‐NTA Superflow (GE Healthcare Life Science). YeaZ was further purified using a Superdex 75 gel filtration column (GE Healthcare Life Science) in buffer 50 mM Hepes pH 7.4, 150 mM NaCl at a concentration of 0.5 mg/ml, in which freshly purified protein exists as a monomer in solution, and stored at −80°C.
Spectrofluorometric assays were performed on a Varian Cary Eclipse fluorescence spectrophotometer (Agilent Technologies) at 20°C. YeaZ was used at a final concentration of 0.065 mg/ml in buffer Hepes 50 mM pH 7.4, NaCl 500 mM, 10% glycerol (with 2% v/v DMSO as control), while the peptides were used at a final concentration of 200 μM. We used an excitation wavelength of 280 nm and registered the fluorescence emission spectra between 300 and 400 nm. Measures were performed in triplicates.
To evaluate the binding of PMP2 in vitro, the recombinant His‐tagged YeaZ protein from PAE PAO1 was produced in E. coli and purified with final purity and yield values adequate for the binding studies. Compound PMP2 was dissolved to 10mM with 100% DMSO and tested in in vitro assays at a final concentration of 200 μM (corresponding to a DMSO concentration of 2%). The interaction with the protein was first evaluated by exploiting the intrinsic fluorescence of the tryptophan residues (ITF) contained in the protein's amino acid sequence. […] Analytical size exclusion chromatography (SEC) was then run to evaluate the peptide's ability to disrupt or interfere with the formation of the homodimers. The YeaZ protein alone eluted at a volume corresponding mainly to its dimeric form (estimated molecular weight of 51 kDa of the main peak) and the effect of 2% v/v DMSO was irrelevant.
(§3) PMP3 was then dissolved to 1mM in MilliQ water and evaluated in vitro in ITF assays. […] To further investigate the binding with PMP3, we performed a concentration‐response curve increasing the amounts of peptide. […] We thus performed an MST assay exploiting the perturbation of thermal diffusion at 650 nm plotted against the peptide concentration. The MO.

[5] = Solubility, hydrophobicity and aggregation of the peptides; assay type: physicochemical
[6] = tested on: YeaZ homodimer; experiment: Analytical size exclusion chromatography (SEC); assay type: binding, Pseudomonas aeruginosa; settings: peptide 200 μM, 2% DMSO, YeaZ 0.5 mg/ml
Procedure: as §2, with “YeaZ was further purified using a Superdex 75 gel filtration column (GE Healthcare Life Science) in buffer 50 mM Hepes pH 7.4, 150 mM NaCl at a concentration of 0.5 mg/ml, in which freshly purified protein exists as a monomer in solution, and stored at −80°C.” left out
To evaluate the binding of PMP2 in vitro, the recombinant His‐tagged YeaZ protein from PAE PAO1 was produced in E. coli and purified with final purity and yield values adequate for the binding studies. […] The interaction with the protein was first evaluated by exploiting the intrinsic fluorescence of the tryptophan residues (ITF) contained in the protein's amino acid sequence. […]

[7] = previous work; cited from earlier work
Text: Since the PPIs and hot spots involved in the PAE YeaZ homodimer are conserved in the YeaZ/YgjD heterodimer,[21], [25], [26] we hypothesized that PMP1 might also represent a good starting point to target the YeaZ/YgjD interface. In this work, we report our studies focused on the PPIs involved in the formation of the TC‐complex and their possible inhibition by PMP1 derivatives. The final aim was the interference of t^6A37 biosynthesis and, consequently, the achievement of bacterial growth impairment.

[8] = tested on: P. aeruginosa PAO1; experiment: Bacterial growth inhibition assay, P. aeruginosa PAO1; assay type: cell-based, Pseudomonas aeruginosa; settings: 3, 10, 30 μM; Mueller Hinton Broth, 37°C, OD595 every 15 min; mean of three independent experiments
Procedure: as §1

[9] = target: YeaZ; experiment: Microscale thermophoresis (MST) assay; assay type: binding, Pseudomonas aeruginosa; settings: 50 nM RED‐NHS labeled YeaZ, Hepes 50 mM pH 7.4, NaCl 500 mM, 10% glycerol, 0.05% Tween20, 24°C, 650 nm, triplicates; saturation plateau not reached, precise value not calculable
Procedure: Microscale thermophoresis (MST) experiments were performed using a Monolith X apparatus (NanoTemper Technologies GmbH, Munich, Germany) and analyzed with the MO. Affinity Analysis software (NanoTemper Technologies GmbH). Briefly, YeaZ was labeled with the red fluorescent dye RED‐NHS 2° generation according to manufacturer instructions. MST measurements were performed in triplicates at 24°C on in Hepes 50 mM pH 7.4, NaCl 500 mM, 10% glycerol, and 0.05% Tween20, using premium‐treated glass capillaries and at a fixed concentration of 50 nM YeaZ. Results were merged and analyzed.
as §3

[10] = Circular dichroism analysis; assay type: physicochemical; settings: 20 μM, 20°C
Procedure: CD spectra were acquired on a JASCO J‐715 spectropolarimeter in a 1‐mm quartz cuvette, under N2, between 260 and 185 nm, at 20°C with 0.5 nm intervals, and 3 measurements were accumulated (settings: 100 mdeg sensitivity, continuous scan mode, 50 nm/min scan speed, 2 s response, bandwidth 1.0 nm). The resulting signal was converted from ellipticity (mdeg) to molar ellipticity [Q] in deg · cm^2 · dmol^−1. Peptides were solubilized in 100% MilliQ water or 1:1 water/TFE at 20 μM concentration. The helical propensity [R] was calculated using the R‐value, i.e. the ratio between molar ellipticity values at 222 and 207 nm, where R = 1 is defined as a reference for an ideal α‐helix.

Q: For “YeaZ protein from P. aeruginosa PAO1, recombinant His-tagged (from UniProt A0A0H2ZEW0 1-226) (natural protein)”, which stoichiometry N [1] is on record?
A: 2

Q: For AIAIGVVQGLAFAL [PMP1], which hydrophobicity [2] is on record?
A: too hydrophobic

Q: For AIAIGVVQGLAFAL‐GG‐KKKG [PMP2], which “growth inhibition of E. coli MG1655” value [3] is on record?
A: no effect of growth inhibition could be observed

Q: What about the “fluorescence emission of YeaZ in presence of peptide (ITF)” value ([4]; peptide 200 μM, 2% DMSO, YeaZ 0.065 mg/ml, Hepes 50 mM pH 7.4, NaCl 500 mM, 10% glycerol, 20°C, excitation 280 nm, emission 300-400 nm, triplicates) of the same substance?
A: decreased fluorescence emission spectrum compared to the protein alone

Q: And the “self‐assembly” value ([2]; by fine‐tuning of the environmental conditions)?
A: capable of self‐assembling in helical nanofibers and 2D sheets as well as forming hydrogels

Q: What about the solubility ([5]; any tested solvent (H2O, 100% DMSO, 10 mM NaOH)) of the same substance?
A: poor solubility

Q: What about the aggregation ([5]; in solution at higher concentrations, prevented evaluation of a dose–response constant) of the same substance?
A: formation of aggregates in solution at higher concentrations

Q: What about the “estimated molecular weight of the YeaZ dimeric peak (SEC)” value ([6]; Hepes 50 mM pH 7.4, NaCl 500 mM, 10% glycerol, Superdex75 Increase 10/300, YeaZ alone 51 kDa) of the same substance?
A: 49 kDa

Q: What about the “effect on the YeaZ dimeric peak (SEC)” value ([6]; pH 7.4) of the same substance?
A: slight shift of the dimeric peak towards a smaller molecular weight

Q: And the “helicity outside the protein environment” value [7]?
A: maintain helicity outside the protein environment

Q: And the “growth inhibition of PAE PAO1” value [8]?
A: no effect of growth inhibition could be observed

Q: What does the source list for “AIAIGVVQGLAFAL‐GG‐[R‐Ahx‐R]4‐Ahx‐β‐Ala [PMP3]”?
A: growth inhibition of E. coli MG1655 [3]: much weaker than those observed for PAO1; intrinsic fluorescence of the peptide ([4]; above a concentration threshold, at 310–340 nm, prevented concentration‐response evaluation): higher than the intrinsic fluorescence of the YeaZ protein; fluorescence intensity of YeaZ in presence of peptide (ITF) ([4]; peptide 200 μM, from 1mM in MilliQ water, YeaZ 0.065 mg/ml, Hepes 50 mM pH 7.4, NaCl 500 mM, 10% glycerol, 20°C, excitation 280 nm, triplicates): reduction of the fluorescence intensity; shift of emission towards shorter wavelengths (ITF), wavelength ([4]; peptide 200 μM, from 1mM in MilliQ water, YeaZ 0.065 mg/ml, pH 7.4, 20°C, slight shift): around 330 nm; Kd (MST) [9]: low micromolar; secondary structure by CD ([10]; 1:1 water/TFE): a clear α‐helix conformation was observed; secondary structure by CD ([10]; 100% MilliQ water): did not show any particular secondary structure; helical propensity R ([10]; ratio of molar ellipticity at 222 and 207 nm (R = 1 ideal α‐helix), 1:1 water/TFE): 0.78; growth inhibition of PAE PAO1 [8]: significant concentration‐dependent decrease in the growth rates
